{"source": "patent US7625894B2", "about": "“Pyrrolo[2,3-d]Pyrimidines as Protein Tyrosine Kinase Inhibitors” (Novartis AG, priority 2004, dated 2009)"}
{"units": {"melting point": "°C"}}
{"smiles": "CCCN(C)c1ncnc2[nH]c(-c3ccc(CN4CCN(C)CC4)cc3)cc12", "note": "[Example 1, methyl-{6-[4-(4-methyl-piperazin-1-ylmethyl)phenyl]-7H-pyrrolo[2,3-d]pyrimidin-4-yl}-propylamine]", "melting point": "220 to 221"}
{"smiles": "CN1CCN(C(=O)c2ccc(-c3cc4c(N5CCN(C)CC5)ncnc4[nH]3)cc2)CC1", "note": "[Example 8, (4-Methyl-piperazin-1-yl)-{4-[4-(4-methyl-piperazin-1-yl)-7H-pyrrolo[2,3-d]pyrimidin-6-yl]-phenyl}-methanone]", "melting point": "243 to 245"}
{"smiles": "CNC(=O)c1ccc(-c2cc3c(NC)ncnc3[nH]2)cc1", "note": "[Example 21, N-Methyl-4-(4-methylamino-7H-pyrrolo[2,3-d]pyrimidin-6-yl)-benzamide]", "melting point": "> 300"}
{"smiles": "CN(C)CCNc1ncnc2[nH]c(-c3ccc(C(=O)N4CCN(C)CC4)cc3)cc12", "note": "[Example 22, {4-[4-(2-Dimethylamino-ethylamino)-7H-pyrrolo[2,3-d]pyrimidin-6-yl]-phenyl}-(4-methyl-piperazin-1-yl)-methanone]", "melting point": "268 to 270"}
{"smiles": "CCCCOCc1ccc(-c2cc3c(N(C)C)ncnc3[nH]2)cc1", "note": "[Example 26, [6-(4-Butoxymethyl-phenyl)-7H-pyrrolo[2,3-d]pyrimidin-4-yl]-dimethyl-amine]", "melting point": "186 to 188"}
{"smiles": "CCC(O)(CC)c1ccc(-c2cc3c(NCCCN4CCOCC4)ncnc3[nH]2)cc1", "note": "[Example 30]", "melting point": "175 to 177"}
{"smiles": "COCCN(CCOC)c1ncnc2[nH]c(-c3ccc(C(C)(C)O)cc3)cc12", "note": "[Example 31, 2-(4-{4-[Bis-(2-methoxy-ethyl)-amino]-7H-pyrrolo[2,3-d]pyrimidin-6-yl}-phenyl)-propan-2-ol]", "melting point": "165 to 167"}
{"smiles": "CCC(O)(CC)c1ccc(-c2cc3c(N(CCOC)CCOC)ncnc3[nH]2)cc1", "note": "[Example 32, 3-(4-{4-[Bis-(2-methoxy-ethyl)-amino]-7H-pyrrolo[2,3-d]pyrimidin-6-yl}-phenyl)-pentan-3-ol]", "melting point": "83 to 85"}
